Test results taken from patent US20100210835A1, “Mimetic Drug Delivery Systems for Release with Specific Molecular Triggers” (BOARD OF REGENTS, THE UNIVERSITY OF TEXAS SYSTEM, priority 2009, published 2010).

Assays:
Format in all cases: physicochemical
[1] = Release of geraniol from MIP polymers in lactic acid solutions; details: 200 mg/dl lactic acid, 24 hours; FIG. 8
Experimental: Loading of films with and Active Agent. The active agent geraniol was used for release studies. Once dry, 7 mm discs were carefully cut out using a standard stainless steel cork borer. The discs were lifted out and placed on a clean dish. For the loading, 100 mg of geraniol was weighed out and dissolved in 100 ml of 50% ethanol:distilled water, resulting in a final concentration of 1.0 mg/ml.
The mixture was vigorously mixed and sonicated for 5 minutes. In the meantime discs were arranged in a segmented plastic container and the geraniol solution gently pipetted onto the discs until they were fully covered. The container was tightly covered and left at room temperature overnight. The following day the geraniol solution was gently removed by pipette until the discs were visible. The discs were washed three times with water and placed on a clean foil and left to dry overnight.
Preparation of lactic acid solutions. […]
Incubation Study—Geraniol. […] The stop clock started and samples were taken (100 ul) into HPLC autosampler vials and the concentration of geraniol present was determined by injecting onto a C18 HPLC column and monitoring at a wavelength of 195 nm.
Assay for Geraniol. Geraniol concentration was quantified using an HPLC Diode array detector (DAD) at 195 nm. After blanking with water, samples were injected and the peak area of the geraniol peak recorded. […]

[2] = Loading of films with geraniol; details: lactic acid-triggered films, 7 mm discs
Experimental: Loading of films with and Active Agent. The active agent geraniol was used for release studies. Once dry, 7 mm discs were carefully cut out using a standard stainless steel cork borer. The discs were lifted out and placed on a clean dish. For the loading, 100 mg of geraniol was weighed out and dissolved in 100 ml of 50% ethanol:distilled water, resulting in a final concentration of 1.0 mg/ml. The mixture was vigorously mixed and sonicated for 5 minutes. In the meantime discs were arranged in a segmented plastic container and the geraniol solution gently pipetted onto the discs until they were fully covered. The container was tightly covered and left at room temperature overnight. The following day the geraniol solution was gently removed by pipette until the discs were visible. The discs were washed three times with water and placed on a clean foil and left to dry overnight.

[3] = Release of Nile Blue from MIP polymers in glucose solutions
Experimental: Loading of Films with Nile Blue For Release Studies. For dye loading, 50 mg of Nile Blue was weighed out and dissolved in 100 ml of distilled water, resulting in a final concentration of 0.5 mg/ml. The mixture was vigorously mixed and sonicated for 5 minutes. In the meantime discs were arranged in a segmented plastic container and the Nile Blue solution gently pipetted onto the discs until they were fully covered. The container was covered and left at room temperature overnight.
The following day the Nile Blue was gently removed by pipettes until the discs were visible. The discs were carefully removed and washed three times with water and then placed in a clean container and covered in water. The container was then placed on a hot plate set to 55° C. and left for three hours. The water was removed and the process repeated. At the end of six hours the discs were removed and placed on a clean foil and dried overnight at room temperature. The following day the discs were ready for study.
Preparation of glucose solutions. Glucose (200 mg) was weighed out and dissolved in 100 ml of water, resulting in a final concentration of 200 mg/dl.
Incubation—Nile Blue. The above solutions of glucose or lactic acid were used as triggers for Nile Blue release. 4 ml of each solution was placed into three petri dishes kept at room temperature. Stained discs were placed into each dish and the dish covered. Samples were taken (400 ul) into micro-cuvettes at specific time points and the concentration of Nile Blue present was determined by measuring the absorbance of the Nile Blue solutions at 625 nm.

release of geraniol from MIP films [1] [%]	loading of geraniol in MIP films [2]	release of Nile Blue from MIP films ([3]; films moved at 365 minutes from water to 200 mg/dl glucose, FIG. 5)	release of Nile Blue from MIP films ([3]; films moved at 450 minutes from glucose solution to fresh water, FIG. 6)	release of Nile Blue from MIP films ([3]; in water, about 5 hours)	release of Nile Blue from MIP films ([3]; increasing glucose concentration, FIG. 4)	SMILES
~100	approximately 145 μg per disc	–	–	–	–	CC(C)=CCC/C(C)=C/CO [Geraniol]
–	–	began almost immediately	stopped almost immediately	not showed any significant release	released in increasing amounts	CC[N+](CC)=c1ccc2nc3c(cc(N)c4ccccc43)oc-2c1 [Nile Blue]
